Measurements taken from EP4523699A1, “ANTI-INFLAMMATORY DERMATOLOGICAL COMPOSITION COMPRISING GLYCEROPHOSPHOINOSITOL, A LACTOFERRIN HYDROLYSATE AND A CANNABINOID, IN PARTICULAR FOR TREATING SEBORRHEIC DERMATITIS” (FB Dermo srl, priority 2023, dated 2025).
Where two headings read alike, the source gives them in different places.

How the values were obtained:
Format in all cases: cell-based, human
[1] = MTT assay, cytotoxicity test on HaCaT cells; conditions: human, hacat cells, percentage of untreated cells (NT), read-out: Cell viability
Description: (§1) Cells vitality is measured as absorbance after MTT treatment. Values are expressed as absorbance percentage over untreated (NT) cells; 1 mg/ml SDS is used as positive control; the boxes show the three highest non-toxic concentrations of each compound.
(§2) Cell lines of immortalized human keratinocyes (HaCaT cells) were grown at 37 °C, 5% CO2 in DMEM culture medium, added with 1% non-essential aminoacids and 10% FBS. The cells were plated in 96-wells multi-well plates at 10^4 cells/well, in 10% FBS -DMEM. The day after, the culture medium was removed and substituted with 100 µL of complete medium with 1% FBS; then, an MTT assay was carried out after treating cells with the single ingredients prepared in Example 1.
(§3) As positive control of toxicity, sodium dodecyl sulfate (SDS) was used, at the concentration of 1 mg/ml.
(§4) The cells were incubated for 24 hours at 37°C and 5% CO2.
(§5) At the end of each incubation, the reagent 3-(4,5-dimethylthiazol-2-yl)-2,5-diphenyltetrazolium bromide (MTT) was added to each well, at the final concentration of 0.45 mg/mL. The plates were then incubated for an additional 2 hours, at 37 °C and 5% CO2.
(§6) At the end of the incubation, the crystals of reduced MTT were solubilized by removing the medium and adding 100 µL of dimethyl sulfoxide (DMSO) to each well.
(§7) Finally, the absorbance at 595 nm of each sample was measured, using an Infinite M NANO+ (Tecan) plate reader.
(§8) The cell viability following treatment with the different substances was analyzed. Cell viability is expressed as percentage of absorbance at 595 nm of untreated cells (NT).

IL-6 = assay: ELISA of IL-6 production in TNFα-inflamed HaCaT cells; conditions: TNFα 20 ng/ml overnight, then 24 hours of treatment
Description: Cell lines of immortalized human keratinocytes (HaCaT cells) were grown at 37 °C, 5% CO2 in DMEM culture medium, added with 1% non-essential aminoacids and 10% FBS. The cells were plated in 48-wells multi-well plates at 5*10^4 cells/ml, in 10% FBS DMEM. The day after, the culture medium was removed and substituted with 500 µL of complete medium without FBS and at the same time an inflammatory process was induced by treatment with TNFα 20 ng/ml, maintained over/night. This stimulus induces an increase in production of these cytokines compared to controls not receiving TNFα.
An experimental group of untreated cells was included, as a negative control of inflammation.
The following day, the inflamed cells were treated with each ingredient prepared in Example 1, at the highest non-toxic concentrations identified in Example 2. • Cannabidiol (CBD): 0.031 (w/v) • GPI lysine (GPI): 0.31 (w/v) • lactoferrin hydrolysate (LAC): 1 (w/v). […]
The dosage of the pro-inflammatory cytokine IL-6 (interleukin 6) was performed on 100 µL of each of the stored aliquots, following the kit protocol provided by the manufacturer. […] The anti-inflammatory effect of the compounds and compositions testes is expressed as a percentage of interleukin's production, with respect to inflamed cells (TNFα-treated) not subjected to anti-inflammatory treatment.

HaCaT cells = assay: MTT assay, cytotoxicity test on HaCaT cells; conditions: 24 hours
Description: as §1, §2, §3, §4, §5, §6, §7, §8

SMILES	viability at 24 h ([1]; concentration 0.063 % w/v)	viability at 24 h ([1]; concentrations from 0.031 to 0.004 % w/v)	activity at 0.03 % (IL-6; Homo sapiens, 0.03% (w/v))	Cell viability (HaCaT cells; percentage of absorbance at 595 nm of untreated cells (NT), concentration 0.0313 % v/v)	Cell viability (HaCaT cells; percentage of untreated cells (NT), concentrations of 0.0156 - 0.001 % v/v)	IL-6 production (% vs TNFα) Mean (IL-6; 0.031% (v/v))
C=C(C)[C@@H]1CCC(C)=C[C@H]1c1c(O)cc(CCCCC)cc1O [CBD, cannabidiol]	~50%	~80%	99%			
O=P(O)(OC[C@H](O)CO)OC1[C@H](O)[C@H](O)C(O)[C@H](O)[C@H]1O (stereo partly drawn) [GPI Lysine, glycerophosphoinositol]				Above 50%	around 80%	96 % vs TNFα
